Data from article PMC4020785 (PLoS ONE, 2014).

How the values were obtained:
[1] = test system: HIV-1 clone NL4.3 (subtype B); test: HIV-1 NL4.3 (subtype B) infection of human PBMCs, Cell Titer Blue readout; assay type: cell-based
Method: Human PMBCs were incubated with 100 U recombinant IL-2 (Sigma-Aldrich) and 5 µg/mL phytohemagglutinin-P (PHA-P) (Difco) for 5 days at 37°C. MT-4 cells (1×10^6) or treated PBMCs (1.2×10^8) were infected with HIV-1 clone NL-4.3 or ZM247Fv-1 (MOI of 0.001) by spinoculation (1200 g at room temperature for 2 h). Uninfected cells were used as negative control and were also subjected to the spinoculation process. After spinoculation, supernatants were discarded and cells were resuspended in 10 mL of R10. Cells from each condition were then added to wells (96-well plate) containing serial dilutions of each ISD. For MT-4 cells, each dilution was done in sextuplicates and, for PBMCs, in triplicates. Cells were also incubated with different concentrations of ZDV as positive control. After 5 days in culture, Cell Titer Blue was added to each well and cells were incubated for additional 24 h. The median effective concentration for each drug is defined as EC50. In parallel with the infectivity assay, the same cell types were treated with different concentrations of drugs to determine their cytotoxicity, following the protocol described above. Drug concentration that results in a 50% decrease in viable cells is defined as the CC50 for each compound. EC50 was calculated according to Spearman-Karber and therapeutic index was defined by the ratio between CC50 and EC50 [55].
All statistical analyses were performed using program GraphPism version 6.0. Titrations for TCID50 infectivity were calculated by the Spearman-Karber method. Dose response curves to ISDs with HIV-1 subtype B and C were done using non-linear regression and were fit to the Hill equation.

HIV LTR in J-Lat clones = test: LTR-driven GFP expression in J-Lat clones; assay type: cell-based, HIV-1
Method: J-Lat cells are Jurkat cells stably transfected by an HIV genome whose nef sequence was replaced by the GFP gene. Also, a frameshift mutation was introduced to the env gene to prevent virus spread. […] To test the ISDs, a million cells of each clone were treated with different concentrations of each compound (ING-A, ING-B, ING-C, prostratin and PMA) at 37°C. TNF-α (10 ng/mL) was used as a positive control. After 48 h, cells were collected, washed with saline solution (PBS) and GFP expression was evaluated in a FACScalibur cytometer (BD Biosciences). Data were analyzed with Cell Quest Pro software (BD Biosciences).

For `CCCCCC(=O)O[C@H]1C(C)=C[C@]23C(=O)[C@@H](C=C(CO)[C@@H](O)[C@]12O)[C@H]1[C@@H](C[C@H]3C)C1(C)C` [ING-B, ingenol-3-hexanoate], the “TI (CC50/EC50)” value ([1]; Human PBMC, Subtype B (X4)) was 714.3, the EC50 ([1]; Human immunodeficiency virus 1, PBMC) was 0.056 µM and the “GFP induction compared with other compounds” value (HIV LTR in J-Lat clones; J-Lat clone 10.6, 48 h) was “slightly more active than ING-A, ING-C and prostratin”. The “levels of GFP expression, rank order” value (HIV LTR in J-Lat clones; J-Lat clones 9.2 and 10.6, 48 h, all concentrations tested) was “PMA = ING-B > ING-A = ING-C > prostratin”.
